Source: patent US9517265B2, “Methods for the prevention and/or treatment of memory impairment” (The Governing Council of the University of Toronto, priority 2010, dated 2016)
Entries after “also recorded” stand apart in the source; their conditions may differ. Read-outs that look alike come from different tables or passages of the source.

Experiments:
postsynaptic GABAARs = assay: Whole-cell currents evoked by exogenous GABA (10 μM) in cultured hippocampal neurons; type: cell-based, mice
α5GABAARs [1] = molecular target: T1, α5GABAARs (Mus musculus, UniProt P22723+Q8BHJ7); assay: Tonic inhibitory current, whole cell voltage-clamp in cultured hippocampal neurons; type: cell-based, mice; design: endogenous in cells; host or cells: primary embryonic mouse hippocampal neurons, alone or co-cultured with cortical microglia; settings: for effect on the tonic current (in words): cultured hippocampal neurons; for amplitude of the tonic current: TNF-α 100 ng/ml, n=10, IL-6 10 ng/ml, n=5
α5GABAARs [2] = molecular target: T2, α5GABAARs (Mus musculus, UniProt P22723+P63080+Q8BHJ7); settings: cited from earlier work
T2 construct: host or cells: neurons (mIPSCs and tonic current recorded); preparation not described in this paragraph

synaptic GABAARs = assay: Miniature inhibitory postsynaptic currents (mIPSCs) in cultured hippocampal neurons; type: cell-based, mice
[3] = rats; cited from earlier work
α5GABAARs [4] = molecular target: T1, α5GABAARs; settings: WT mice, etomidate or etomidate plus L-655,708 30 min prior to training; cited from earlier work
α5GABAA receptors = α5GABAA receptors (Mus musculus, UniProt P22723+Q8BHJ7); settings: for effect of the anesthetic on recognition memory, wild-type mice (in words): 24 h after anesthesia
Sequence of α5GABAA receptors (Q8BHJ7 32-463 limits assumed): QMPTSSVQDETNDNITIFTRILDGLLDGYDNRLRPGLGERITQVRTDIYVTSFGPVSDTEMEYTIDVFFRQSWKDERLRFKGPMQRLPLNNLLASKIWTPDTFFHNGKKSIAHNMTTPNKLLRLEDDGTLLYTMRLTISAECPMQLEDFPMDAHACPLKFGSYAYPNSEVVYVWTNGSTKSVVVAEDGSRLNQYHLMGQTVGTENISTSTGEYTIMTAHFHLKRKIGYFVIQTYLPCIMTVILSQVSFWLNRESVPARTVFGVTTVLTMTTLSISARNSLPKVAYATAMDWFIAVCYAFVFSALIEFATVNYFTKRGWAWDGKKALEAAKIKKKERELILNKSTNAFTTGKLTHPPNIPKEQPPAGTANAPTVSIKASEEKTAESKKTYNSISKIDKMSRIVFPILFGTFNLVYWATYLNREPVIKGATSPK
Sequence of α5GABAA receptors (P63080 26-473 partner): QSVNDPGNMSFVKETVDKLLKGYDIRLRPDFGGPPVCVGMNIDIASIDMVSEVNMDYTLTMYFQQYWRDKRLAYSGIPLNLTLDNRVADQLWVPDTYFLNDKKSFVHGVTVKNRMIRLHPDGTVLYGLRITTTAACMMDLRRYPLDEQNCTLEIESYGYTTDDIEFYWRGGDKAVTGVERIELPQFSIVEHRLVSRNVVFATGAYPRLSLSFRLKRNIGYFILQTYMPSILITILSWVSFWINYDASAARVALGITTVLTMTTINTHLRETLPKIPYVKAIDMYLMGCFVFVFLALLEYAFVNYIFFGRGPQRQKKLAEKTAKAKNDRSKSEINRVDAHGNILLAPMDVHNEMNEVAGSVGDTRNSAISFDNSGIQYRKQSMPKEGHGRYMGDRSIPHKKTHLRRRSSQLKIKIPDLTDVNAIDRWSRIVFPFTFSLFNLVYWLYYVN
Sequence of α5GABAA receptors (P22723 39-474): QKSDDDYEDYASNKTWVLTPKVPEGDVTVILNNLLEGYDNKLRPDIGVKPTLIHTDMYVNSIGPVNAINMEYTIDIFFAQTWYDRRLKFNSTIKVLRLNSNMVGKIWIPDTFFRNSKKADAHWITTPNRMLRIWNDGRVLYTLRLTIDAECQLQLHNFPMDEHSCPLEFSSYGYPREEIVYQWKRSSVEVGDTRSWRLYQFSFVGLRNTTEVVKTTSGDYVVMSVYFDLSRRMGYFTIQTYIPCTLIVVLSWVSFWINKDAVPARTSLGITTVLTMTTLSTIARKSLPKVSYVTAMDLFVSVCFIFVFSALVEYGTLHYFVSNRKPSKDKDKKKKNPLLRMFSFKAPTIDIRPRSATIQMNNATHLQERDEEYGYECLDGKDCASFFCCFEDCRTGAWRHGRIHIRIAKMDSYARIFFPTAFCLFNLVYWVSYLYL

T1 sequence (Q8BHJ7 32-463 limits assumed): as the sequence (Q8BHJ7 32-463 limits assumed) above
T1 sequence (P63080 26-473 partner): as the sequence (P63080 26-473 partner) above
T1 sequence (P22723 39-474): as the sequence (P22723 39-474) above
T2 sequence (Q8BHJ7 32-463 limits assumed): as the sequence (Q8BHJ7 32-463 limits assumed) above
T2 sequence (P63080 26-473): as the sequence (P63080 26-473 partner) above
T2 sequence (P22723 39-474): as the sequence (P22723 39-474) above

## O=c1cc(N2CCOCC2)oc2c(-c3ccccc3)cccc12 [LY294,002]
Postsynaptic GABAARs
  effect on IL-1β inhibition of the GABA-evoked peak current (in words): completely prevented IL-1β-dependent inhibition of the GABA-evoked peak current; also recorded: alone had no effect on the GABA-evoked peak responses
α5GABAARs [1]
  effect on the tonic current (in words): had no effect on the IL-1β-induced increase in tonic current

## Cc1ncc2n1-c1ccc(Cl)cc1C(c1ccccc1F)=NC2 [Midazolam, midazolam]
α5GABAARs [2]
  increase in charge transfer for the tonic current relative to that for mIPSCs: 7-21 fold

## CCc1nc(-c2ccc(OC)cc2)[nH]c1-c1ccncc1 [SB202,474]
α5GABAARs [1]
  effect on the tonic current (in words): had no effect on the tonic current

## C[S+]([O-])c1ccc(-c2nc(-c3ccncc3)c(-c3ccc(F)cc3)[nH]2)cc1 (stereo not shown) [SB203,580]
Postsynaptic GABAARs
  effect on IL-1β inhibition of the GABA-evoked peak current (in words): had no effect on inhibition of the GABA-evoked peak current by IL-1β
Synaptic GABAARs
  effect on mIPSCs (in words): did not modify IL-1β inhibition of miniature IPSCs
α5GABAARs [1]; IL-1β 20 ng ml^−1 20 min with or without SB203,580 20 μM 30 min
  tonic current density: 1.0±0.1 pA pF^−1
α5GABAARs [1]
  effect on the tonic current (in words): completely blocked the IL-1β-induced increase in the tonic current

## FC(F)OC(F)C(F)(F)F (stereo not shown) [desflurane]
[3]
  threshold concentration that impaired memory performance during fear conditioning: 0.44%

## CCOC(=O)c1cncn1[C@H](C)c1ccccc1 [etomidate]
α5GABAARs [4]
  contextual fear memory, freezing score (in words): reduced the freezing score
α5GABAARs [1]
  effect on the tonic current (in words): selectively potentiate the tonic current; also recorded: increased the amplitude of the tonic current; also recorded: produced a supra-additive increase in the tonic current

## COc1ccc(-c2ccc(=N)n(CCCC(=O)O)n2)cc1 [gabazine]
α5GABAARs [1]
  effect on the tonic current (in words): selectively inhibits the synaptic but not tonic current

## FC(F)(F)C(Cl)Br (stereo not shown) [halothane]
[3]
  threshold concentration that impaired memory performance during fear conditioning: 0.3%

## CC(C)c1cccc(C(C)C)c1O [propofol]
α5GABAARs [2]
  increase in charge transfer for the tonic current relative to that for mIPSCs: 6-33 fold

## FCOC(C(F)(F)F)C(F)(F)F [sevoflurane]
α5GABAA receptors
  effect of the anesthetic on recognition memory, wild-type mice (in words): did not learn the task
α5GABAA receptors; listed as Sevoflurane
  effect of the anesthetic on recognition memory, wild-type mice (in words): caused memory deficits 24 h after anesthesia
α5GABAA receptors; 24 h after sevoflurane
  exploratory behavior during the training phase: 23.45 ± 3.88 s
  time with familiar object: 13.13±1.95
  time with novel object: 15.41±2.25
α5GABAA receptors; 24 h after sevoflurane 2.3% 1 h
  discrimination ratio, short-term memory: 0.53±0.03
[3]
  threshold concentration that impaired memory performance during fear conditioning: 0.3%

## IL-6: pro-inflammatory cytokine
α5GABAARs [1]
  amplitude of the tonic current: 96.3%±6.0%
  effect on the tonic current (in words): did not modify the tonic conductance in hippocampal neurons

## TNF-α
α5GABAARs [1]
  amplitude of the tonic current: 104.1%±12.1%
  effect on the tonic current (in words): did not modify the tonic conductance in hippocampal neurons
